Legend:
[1] = in vivo; details: male, C57BL/6, mouse, po; for half-life: 75 mg/kg
Description: As appreciated, h-rac-bupropion is a 1:1 mixture of the two protonated enantiomers h-S-bupropion and h-R-bupropion. […] Animals were euthanized at preset time points (n=3 per time point). […] Quantitative data was analyzed in Excel (Microsoft Corp, Redmond, Wash.) using the PKSolver add-in (version 2, as described by Zhang et al. in Comput Methods Programs Biomed 99 (2010) 306-314) to determine PK parameters.

[2] = biological target: T1, norepinephrine transporter (Rattus norvegicus, UniProt Q63380); assay: Inhibition of norepinephrine uptake in rat hypothalamus synaptosomes; assay type: biochemical
T1 construct: tissue Cerep, France (assay provider); host or cells: rat hypothalamus synaptosomes
Description: The inhibitory activity of the (S)- and (R)-enantiomers of 1-(m-chlorophenyl)-2-(tert-butylamino)-(2-^2H)-propan-1-one was evaluated in the rat synaptosome assay (Cerep, France). Briefly, compounds were incubated for 20 min at 37° C. with rat hypothalamus synaptosomes in the presence of tritiated norepinephrine (NE). The uptake of radiolabeled NE by the synaptosomes was measured as a function of compound concentration. Inhibition of the transporter is observed when the amount of radioactivity in the synaptosomes is lower in the presence of test article. Analysis of the data was performed using the log(inhibitor) vs. response—variable slope (four parameters) model in GraphPad Prism 6.0 (GraphPad Software, Inc., La Jolla, Calif.), where response is % inhibition (% inhibition=100 [(NE uptake)control−(NE uptake)compound)]/(NE uptake)vehicle). Both inhibition curves were characterized by Hill slopes close to 1.

[3] = biological target: T2, human α7 nicotinic acetylcholine receptor (Homo sapiens, UniProt P36544); assay: Inhibition of acetylcholine induced current in Xenopus Laevis oocytes overexpressing α7 nAChR; assay type: cell-based
T2 construct: expressed in transfected cells; host or cells: Xenopus laevis oocytes injected with cDNA
Description: Evaluation of the antagonist activity of the enantiomers of deuterated bupropion at α7 and α4β2 nicotinic acetylcholine receptors (nAChRs) was carried out in Xenopus Laevis oocytes prepared and injected with the corresponding cDNA using standard procedures. Receptor expression was examined two days after injection. For α4β2 nAChR, the two cDNAs were injected in equimolar amounts. All experiments were performed at 18° C. and cells were superfused with OR2 medium containing 82.5 mM sodium chloride, 2.5 mM potassium chloride, 5 mM HEPES, 1.8 mM calcium chloride, and 1 mM magnesium chloride at pH 7.4. A two-electrode voltage-clamp configuration was used to record currents evoked by acetylcholine addition. Data acquisition and analysis was performed in Matlab (Mathworks, Inc., Natick, Mass.). Statistical analysis was executed in Excel (Microsoft Corp, Redmond, Wash.) or Matlab (Mathwork, Inc., Natick, Mass.). All experiments were carried out using at least 3 oocytes.

[4] = system: female CD-1 mice; assay: Behavioral effects after intraperitoneal injection in female CD-1 mice; details: 2 h observation
Description: Individual body weights were used for dose volume calculations. Equal numbers of animals per group were tested each day. […] Animals were also observed 24 h post-dose. During the 2 h observation period, presence or absence of ataxic gait, paralysis, hyperactivity, hypoactivity, and catatonic episodes was recorded. Number, time of onset, duration, and intensity of convulsions were also recorded. Duration of each convulsion was graded as short (1 to 10 s), medium (11 to 30 s), or long (≧31 s). Intensity of convulsion was similarly graded as mild, moderate, or severe. Any animal showing a single episode of severe seizure longer than 1 min or experiencing greater than 40 consecutive episodes of severe convulsions over 1 h or less was euthanized.

[5] = biological target: T3, dopamine transporter (Rattus norvegicus, UniProt P23977); assay: Inhibition of dopamine uptake in rat striatum synaptosomes; assay type: biochemical
T3 construct: tissue Cerep, France (assay provider); host or cells: rat striatum synaptosomes
Description: The inhibitory activity of the (S)- and (R)-enantiomers of 1-(m-chlorophenyl)-2-(tert-butylamino)-(2-^2H)-propan-1-one was evaluated in the rat synaptosome assay (Cerep, France). Briefly, each compound was incubated for 15 min at 37° C. with rat striatum synaptosomes in the presence of tritiated dopamine (DA). The uptake of radiolabeled DA by the synaptosomes was measured by scintillation counting as a function of compound concentration. Inhibition of the dopamine transporter is observed when the amount of radioactivity in the synaptosomes is lower in the presence of the test article than in its absence. Analysis of the data was performed using the log(inhibitor) vs. response—variable slope (four parameters) model in GraphPad Prism 6.0 (GraphPad Software, Inc., La Jolla, Calif.), where response is % inhibition (% inhibition=100 [(DA uptake)control−(DA uptake)compound)]/(DA uptake)vehicle). Both inhibition curves were characterized by Hill slopes close to 1.

T3 sequence (P23977 whole entry): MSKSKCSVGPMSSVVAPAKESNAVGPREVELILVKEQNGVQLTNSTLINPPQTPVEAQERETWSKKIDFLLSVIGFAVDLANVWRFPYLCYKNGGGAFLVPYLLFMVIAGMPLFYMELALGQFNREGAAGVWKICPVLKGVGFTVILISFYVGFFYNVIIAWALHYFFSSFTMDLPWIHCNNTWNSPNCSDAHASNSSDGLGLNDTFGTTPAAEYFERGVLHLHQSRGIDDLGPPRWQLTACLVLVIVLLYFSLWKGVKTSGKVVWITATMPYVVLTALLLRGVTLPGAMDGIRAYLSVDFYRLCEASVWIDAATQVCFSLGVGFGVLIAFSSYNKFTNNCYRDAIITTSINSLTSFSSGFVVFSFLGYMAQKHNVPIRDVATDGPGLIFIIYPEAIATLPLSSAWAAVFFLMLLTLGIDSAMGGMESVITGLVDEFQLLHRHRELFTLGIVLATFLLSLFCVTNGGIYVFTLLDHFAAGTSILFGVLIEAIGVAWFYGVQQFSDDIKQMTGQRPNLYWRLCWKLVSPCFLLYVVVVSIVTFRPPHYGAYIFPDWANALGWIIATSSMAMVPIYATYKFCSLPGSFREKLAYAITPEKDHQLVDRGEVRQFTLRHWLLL
T1 sequence (Q63380 1-617): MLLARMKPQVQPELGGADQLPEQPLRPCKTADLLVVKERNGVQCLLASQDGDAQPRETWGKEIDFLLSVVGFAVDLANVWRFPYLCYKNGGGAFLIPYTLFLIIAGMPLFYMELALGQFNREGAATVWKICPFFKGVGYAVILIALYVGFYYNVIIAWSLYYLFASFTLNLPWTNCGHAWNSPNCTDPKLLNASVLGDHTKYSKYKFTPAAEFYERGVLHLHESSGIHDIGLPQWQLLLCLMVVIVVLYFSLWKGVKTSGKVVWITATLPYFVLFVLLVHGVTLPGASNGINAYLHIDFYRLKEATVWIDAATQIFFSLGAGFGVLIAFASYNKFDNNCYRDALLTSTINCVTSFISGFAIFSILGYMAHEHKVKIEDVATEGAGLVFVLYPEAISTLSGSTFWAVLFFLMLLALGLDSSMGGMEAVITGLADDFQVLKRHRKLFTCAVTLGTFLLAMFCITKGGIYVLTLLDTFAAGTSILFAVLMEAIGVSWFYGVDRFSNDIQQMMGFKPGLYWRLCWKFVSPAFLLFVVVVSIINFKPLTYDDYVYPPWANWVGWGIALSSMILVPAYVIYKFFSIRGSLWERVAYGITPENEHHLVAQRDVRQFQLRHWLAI
T2 sequence (P36544 23-502): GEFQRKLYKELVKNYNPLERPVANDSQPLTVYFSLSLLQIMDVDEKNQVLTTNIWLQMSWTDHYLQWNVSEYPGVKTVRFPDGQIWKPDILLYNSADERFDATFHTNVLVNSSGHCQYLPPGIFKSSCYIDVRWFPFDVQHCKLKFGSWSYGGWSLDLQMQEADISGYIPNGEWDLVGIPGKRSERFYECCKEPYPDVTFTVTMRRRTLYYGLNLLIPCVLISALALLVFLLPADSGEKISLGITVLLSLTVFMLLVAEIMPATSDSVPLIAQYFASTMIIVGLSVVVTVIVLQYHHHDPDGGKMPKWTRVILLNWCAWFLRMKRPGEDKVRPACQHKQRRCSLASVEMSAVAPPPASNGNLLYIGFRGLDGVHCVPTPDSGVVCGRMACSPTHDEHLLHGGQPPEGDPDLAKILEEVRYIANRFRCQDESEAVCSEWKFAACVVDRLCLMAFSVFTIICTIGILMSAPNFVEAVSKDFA

For CC(NC(C)(C)C)C(=O)c1cccc(Cl)c1 (racemic) [h-rac-bupropion, racemic-1-(m-chlorophenyl)-2-(tert-butylamino)-propan-1-one, reference compound], which “AUC0-t of hR (h-R-bupropion) in plasma” value [1] is on record?
Its value is 6798 ng·h/mL.

What about the “AUC0-t of hRR (h-RR-hydroxybupropion) in plasma” value [1] of the same molecule?
The value was 18393 ng·h/mL.

And the “AUC0-t of hS (h-S-bupropion) in plasma” value [1]?
The value was 5265 ng·h/mL.

What about the “AUC0-t of hSS (h-SS-hydroxybupropion) in plasma” value [1] of the same molecule?
The value was 6591 ng·h/mL.

With [2H][C@](C)(NC(C)(C)C)C(=O)c1cccc(Cl)c1 [d-R-bupropion, (R)-1-(m-chlorophenyl)-2-(tert-butylamino)-(2-^2H)-propan-1-one] as the molecule, how does the IC50 [2] read?
Its IC50 is 5.76 µM.

And the IC50 [3]?
Its IC50 is 28.7 µM.

What about the “AUC0-t of dRR (d-RR-hydroxybupropion) in plasma” value [1] of the same molecule?
Its value is 22059 ng·h/mL.

What about the “AUC0-t of hR (h-R-bupropion) in plasma” value [1] of the same molecule?
Its value is 496 ng·h/mL.

And the “AUC0-t of hRR (h-RR-hydroxybupropion) in plasma” value [1]?
Its value is 1685 ng·h/mL.

And the “AUC0-t of hS (h-S-bupropion) in plasma” value [1]?
Its value is 340 ng·h/mL.

And the “AUC0-t of hSS (h-SS-hydroxybupropion) in plasma” value [1]?
The value was 169 ng·h/mL.

What about the half-life [1] of the same molecule?
Its half-life is 1.7 h.

And the “mice per dose group experiencing ataxia” value ([4]; 100 mg/kg i.p.)?
The value was 56%.

And the “mice per dose group experiencing catatonia” value ([4]; 100 mg/kg i.p.)?
The value was 78%.

What about the “mice per dose group experiencing convulsions” value ([4]; 100 mg/kg i.p.) of the same molecule?
The value was 33%.

What about the “mice per dose group experiencing hyperactivity” value ([4]; 100 mg/kg i.p.) of the same molecule?
The value was 0%.

What about the “mice per dose group experiencing hypoactivity” value ([4]; 100 mg/kg i.p.) of the same molecule?
Its value is 100%.

What about the “mice per dose group experiencing ataxia” value ([4]; 125 mg/kg i.p.) of the same molecule?
The value was 80%.

What about the “mice per dose group experiencing catatonia” value ([4]; 125 mg/kg i.p.) of the same molecule?
Its value is 90%.

And the “mice per dose group experiencing convulsions” value ([4]; 125 mg/kg i.p.)?
The value was 60%.

And the “mice per dose group experiencing hyperactivity” value ([4]; 125 mg/kg i.p.)?
The value was 0%.

What about the “mice per dose group experiencing hypoactivity” value ([4]; 125 mg/kg i.p.) of the same molecule?
Its value is 100%.

What about the “mice per dose group experiencing ataxia” value ([4]; 150 mg/kg i.p.) of the same molecule?
Its value is 90%.

What about the “mice per dose group experiencing catatonia” value ([4]; 150 mg/kg i.p.) of the same molecule?
Its value is 100%.

And the “mice per dose group experiencing convulsions” value ([4]; 150 mg/kg i.p.)?
The value was 100%.

What about the “mice per dose group experiencing hyperactivity” value ([4]; 150 mg/kg i.p.) of the same molecule?
Its value is 0%.

And the “mice per dose group experiencing hypoactivity” value ([4]; 150 mg/kg i.p.)?
The value was 100%.

What about the IC50 [5] of the same molecule?
Its IC50 is 4.2 µM.

Which results are given for [2H][C@@](C)(NC(C)(C)C)C(=O)c1cccc(Cl)c1 [d-S-bupropion, (S)-1-(m-chlorophenyl)-2-(tert-butylamino)-(2-^2H)-propan-1-one]?
IC50 [2]: 2.3 µM; IC50 [3]: 43.2 µM; AUC0-t of dSS (d-SS-hydroxybupropion) in plasma [1]: 6545 ng·h/mL; AUC0-t of hR (h-R-bupropion) in plasma [1]: 269 ng·h/mL; AUC0-t of hRR (h-RR-hydroxybupropion) in plasma [1]: 1129 ng·h/mL; AUC0-t of hS (h-S-bupropion) in plasma [1]: 469 ng·h/mL; AUC0-t of hSS (h-SS-hydroxybupropion) in plasma [1]: 395 ng·h/mL; AUC(0-t) [1]: 4760 ng·h/mL; half-life [1]: 0.9 h; mice per dose group experiencing ataxia ([4]; 100 mg/kg i.p.): 70%; mice per dose group experiencing catatonia ([4]; 100 mg/kg i.p.): 10%; mice per dose group experiencing convulsions ([4]; 100 mg/kg i.p.): 40%; mice per dose group experiencing hyperactivity ([4]; 100 mg/kg i.p.): 100%; mice per dose group experiencing hypoactivity ([4]; 100 mg/kg i.p.): 0%; mice per dose group experiencing ataxia ([4]; 125 mg/kg i.p.): 89%; mice per dose group experiencing catatonia ([4]; 125 mg/kg i.p.): 44%; mice per dose group experiencing convulsions ([4]; 125 mg/kg i.p.): 70%; mice per dose group experiencing hyperactivity ([4]; 125 mg/kg i.p.): 78%; mice per dose group experiencing hypoactivity ([4]; 125 mg/kg i.p.): 0%; mice per dose group experiencing ataxia ([4]; 150 mg/kg i.p.): 100%; mice per dose group experiencing catatonia ([4]; 150 mg/kg i.p.): 80%; mice per dose group experiencing convulsions ([4]; 150 mg/kg i.p.): 100%; mice per dose group experiencing hyperactivity ([4]; 150 mg/kg i.p.): 20%; mice per dose group experiencing hypoactivity ([4]; 150 mg/kg i.p.): 80%; IC50 [5]: 0.42 µM
